Patent publication US7816331B2, “Substituted indazole-O-glucosides” (Janssen Pharmaceutica NV, priority 2003, dated 2010)

Tests used:
[1] = molecular target: T1, human SGLT1 (Homo sapiens, UniProt P13866); assay: Cell-based assay for sodium-dependent glucose transport (14C-AMG uptake), CHOK-SGLT1; details: 10 uM compound, CHO-K1 cells stably expressing human SGLT1, Na-dependent 14C-AMG uptake; for inhibition at 10 µM: read-out: CHOK-SGLT1 % Inh (10 uM)
T1 construct: expressed in transfected cells
T1 sequence (P13866 1-664): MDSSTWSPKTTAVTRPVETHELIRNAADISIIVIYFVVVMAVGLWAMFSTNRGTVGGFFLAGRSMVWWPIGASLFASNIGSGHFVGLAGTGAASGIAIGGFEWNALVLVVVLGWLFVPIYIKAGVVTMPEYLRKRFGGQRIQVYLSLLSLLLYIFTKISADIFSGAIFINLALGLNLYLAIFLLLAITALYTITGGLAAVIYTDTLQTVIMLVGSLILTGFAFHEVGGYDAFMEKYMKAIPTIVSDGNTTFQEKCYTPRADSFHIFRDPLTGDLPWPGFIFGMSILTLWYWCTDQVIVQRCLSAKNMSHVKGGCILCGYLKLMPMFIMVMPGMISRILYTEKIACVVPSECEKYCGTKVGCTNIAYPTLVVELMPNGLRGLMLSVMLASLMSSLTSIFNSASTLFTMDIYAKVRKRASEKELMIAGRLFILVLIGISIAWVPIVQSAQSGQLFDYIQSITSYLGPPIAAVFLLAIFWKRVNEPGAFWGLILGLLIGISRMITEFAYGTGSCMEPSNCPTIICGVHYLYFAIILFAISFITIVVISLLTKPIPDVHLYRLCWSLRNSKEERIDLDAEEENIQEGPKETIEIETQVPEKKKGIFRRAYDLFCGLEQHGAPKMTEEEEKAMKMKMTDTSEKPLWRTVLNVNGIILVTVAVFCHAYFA
Experimental: (§1) Cloning of the human SGLT1 and human SGLT2 cDNAs and construction of the mammalian expression vector: The human SGLT1 cDNA (Genbank M24847) was cloned from human small intestine. Human SGLT2 cDNA (Genbank M95549) was cloned from human kidney. Both full cDNAs were subcloned into pcDNA and sequenced to verify the integrity of the construct. Generation of CHO-K1 cells stably expressing human SGLT1 or human SGLT2: Transfection of CHO-K1 cells was performed using DMRIE-C reagent (Life Technologies, Gaithersburg, Md.). Transfectants were then selected in the presence of the antibiotic G418 (Gibco-BRL, Grand Island, N.Y.) at 400 μg/ml. Individual clones were then characterized using the functional assay described below. Cell-based assay for sodium-dependent glucose transport: Cell lines stably expressing human SGLT1 or SGLT2 were then used for functional analysis of Na^+-dependent glucose uptake. Briefly, cells were plated at a density of 65,000 cells per well in a 96-well plate and allowed to grow for 48 hours. Cells were subsequently washed one time with Assay Buffer (50 mM HEPES pH 7.4, 20 mM Tris, 5 mM KCl, 1 mM MgCl2, 1 mM CaCl2 and 137 mM NaCl) and treated with compound in the absence or presence of NaCl for 15 minutes. Cells were then labeled with ^14C-α-methylglucopyranoside (AMG, Sigma, St. Louis, Mo.), a non-metabolizable glucose analog specific for sodium-dependent glucose transporters as previously described (Peng, H. and Lever J. E. Post-transcriptional regulation of Na^+/glucose cotransporter (SGLT1) gene expression in LLC-PK1 cells. J Biol Chem 1995; 270:20536-20542.). After 2 hours the labelled cells were washed three times with ice-cold PBS. After aspiration, cells were solubilized using Microscint 20 (Packard, Meriden, Conn.) and Na-dependent ^14C-AMG uptake was quantified by measuring radioactivity. Plates were counted in a TopCount (Packard, Meriden, Conn.). Results are reported as the % inhibition or IC50 value from a representative experiment. Variability for the functional assay was typically within 20%.

[2] = molecular target: T2, human SGLT2 (Homo sapiens, UniProt P31639); assay: Cell-based assay for sodium-dependent glucose transport (14C-AMG uptake), CHOK-SGLT2; details: for IC50: CHO-K1 cells stably expressing human SGLT2, Na-dependent 14C-AMG uptake, read-out: CHOK-SGLT2 IC50 (uM) ± SEM
T2 construct: expressed in transfected cells
T2 sequence (P31639 1-672): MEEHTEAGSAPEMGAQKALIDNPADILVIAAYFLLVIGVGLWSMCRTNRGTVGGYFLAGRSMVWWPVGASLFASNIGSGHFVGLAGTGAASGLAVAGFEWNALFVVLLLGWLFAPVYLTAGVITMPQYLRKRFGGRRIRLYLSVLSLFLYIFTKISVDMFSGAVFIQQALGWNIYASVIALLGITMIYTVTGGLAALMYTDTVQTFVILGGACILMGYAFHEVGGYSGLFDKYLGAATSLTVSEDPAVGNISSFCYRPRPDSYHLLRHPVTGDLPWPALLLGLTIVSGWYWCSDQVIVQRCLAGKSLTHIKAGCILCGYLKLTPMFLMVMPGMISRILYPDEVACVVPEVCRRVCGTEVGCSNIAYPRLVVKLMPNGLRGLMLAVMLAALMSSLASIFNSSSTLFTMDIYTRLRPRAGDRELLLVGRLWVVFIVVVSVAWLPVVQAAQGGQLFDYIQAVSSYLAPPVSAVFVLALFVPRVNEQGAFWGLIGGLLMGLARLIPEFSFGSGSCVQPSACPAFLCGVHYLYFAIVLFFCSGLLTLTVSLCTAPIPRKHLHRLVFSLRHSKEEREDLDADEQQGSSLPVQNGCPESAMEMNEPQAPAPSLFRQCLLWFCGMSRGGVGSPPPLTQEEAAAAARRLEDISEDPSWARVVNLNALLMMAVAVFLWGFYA
Experimental: as §1, with “experiment.” for “experiment. Variability for the functional assay was typically within 20%.”

Structure (SMILES) | inhibition at 10 µM [1] [%] | IC50 [2] [µM] | CHOK-SGLT1 % Inh (10 uM) [1] | inhibition at 10 µM ([2]; CHO-K1, read-out: CHOK-SGLT2 % Inh. @ 10 μM) [%]
CC(=O)OC[C@H]1O[C@@H](Oc2cc(C)cc3[nH]nc(CCc4ccc5occc5c4)c23)[C@H](O)[C@@H](O)[C@@H]1O [Example 14, 2-[3-(2-Benzofuran-5-yl-ethyl)-6-methyl-1H-indazol-4-yloxy]-6-O-acetyl-β-D-glucopyranoside] | 42 | 1.5 ± 0.071 | – | –
Cc1cc(O[C@@H]2O[C@H](CO)[C@@H](O)[C@H](O)[C@H]2O)c2c(CCc3ccc4c(c3)CCO4)n[nH]c2c1 [Example 1, 2-{3-[2-(2,3-Dihydro-benzofuran-5-yl)-ethyl]-6-methyl-1H-indazol-4-yloxy}β3-D-glucopyranoside] | 48 | 0.458 ± 0.061 | – | –
Cc1cc(OC2OC(CO)C(O)C(O)C2O)c2c(CCc3ccc4c(c3)CCCC4)n[nH]c2c1 [Example 5, 2-{6-Methyl-3-[2-(5,6,7,8-tetrahydro-naphthalen-2-yl)-ethyl]-1H-indazol-4-yloxy}-β-D-glucopyranoside] | – | 3.25 ± 0.461 | inactive | –
COc1ccc2c(c1)CCC(CCc1n[nH]c3cc(C)cc(OC4OC(CO)C(O)C(O)C4O)c13)C2 [Example 8, 2-{3-[2-(6-Methoxy-1,2,3,4-tetrahydro-naphthalen-2-yl)-ethyl]-6-methyl-1H-indazol-4-yloxy}-β-D-glucopyranoside] | – | – | inactive | 67
COc1ccc(Cc2n[nH]c3cc(C)cc(O[C@@H]4O[C@H](CO)[C@@H](O)[C@H](O)[C@H]4O)c23)cc1 [Example 21, 2-[3-(4-Methoxy-benzyl)-6-methyl-1H-indazol-4-yloxy]-β-D-glucopyranoside] | – | 0.959 ± 0.118 | inactive | –
Cc1cc(O[C@@H]2O[C@H](CO)[C@@H](O)[C@H](O)[C@H]2O)c2c(CCc3ccc4c(c3)OCCO4)n[nH]c2c1 [Example 3, 2-{3-[2-(2,3-Dihydro-benzo[1,4]dioxin-6-yl)-ethyl]-6-methyl-1H-indazol-4-yloxy}β-D-glucopyranoside] | – | 1.59 ± 0.025 | inactive | –
